Read-outs that look alike come from different tables or passages of the source.
Legend:
A. veronii ACCC61732 [1] = assay: Inner membrane permeability, PI staining, flow cytometry; format: cell-based
Experimental: To analyze effects of peptides on the inner membrane, A. veronii ACCC61732 cells were cultured to mid-log phase at 37 °C in MHB medium, washed thrice with PBS, and resuspended in the PBS buffer to 1 × 10^8 CFU/mL. […] After fixation with PI, the samples were detected by a fluorescent inverted microscope and FACS Calibur Flow Cytometer (BD, San Jose, CA, USA), respectively. Cell Quest Pro software (BD, San Jose, CA, USA) was used for the data analysis.

A. veronii ACCC61732 [2] = assay: Resistance development, 30 serial passages; format: cell-based; details: A. veronii ACCC61732, 30 passages (30 days)
Experimental: The development of bacterial resistance of peptides was performed by the MIC assays. […] GEN, CIP, and PMB were used as controls. […] The MIC values were measured as described above. The serial passaging was repeated for 30 days.

A. veronii ACCC61732 [3] = assay: Time-killing curves; format: cell-based; details: 2× MIC; 1 × 10^5 CFU/mL, colony counting, 0–24 h
Experimental: Time-killing curves were performed as previously described. […] The sample of 100 μL was taken from each flask at 0, 0.5, 1, 2, 4, 6, 8, 10, 20, and 24 h, respectively, and serially diluted for colony counting. PBS and CIP were used as the negative and positive control, respectively.

A. veronii ACCC61732 [4] = assay: Outer membrane permeabilization, NPN assay; format: cell-based; details: NPN fluorescence, 1×–4× MIC
Experimental: The outer membrane permeabilization abilities of peptides were determined using the fluorescent NPN assay. Mid-log phase A. veronii ACCC61732 was collected by centrifugation, washed twice, and then suspended in N-2-hydroxyethylpiperazine-n-2-ethane sulfonic acid (HEPES) buffer (pH 7.4) to an OD600nm = 0.4. […] Fluorescence intensity was recorded until no further increase with a microplate reader (excitation/emission, 328/438 nm).

A. veronii ATCC35624 = format: cell-based
E. coli CVCCO157 = assay: MIC, microtiter broth dilution; format: cell-based; details: 37 °C, 16–18 h, three experiments
Text: (§1) All experiments were repeated three times.

[5] = test system: A. veronii ACCC61732 in biofilm; format: cell-based; details: 2 h
Experimental: The mid-log phase A. veronii ACCC61732 cells (1 × 10^8 CFU/mL) were inoculated into in the 96-well plates and cultured for 24 h at 37 °C. The plates were washed twice with PBS. […] PBS was used as the negative control. The plates were treated with ultrasound for 5 min and the viable bacteria were counted on the TSA plates.

A. veronii ACCC61732 [6] = assay: Post-antibiotic effect (PAE); format: cell-based; details: for PAE: 2 h exposure, 1000-fold dilution, 37 °C, triplicate
Experimental: The samples were taken from flasks for counting each hour until bacterial cultures became turbid. The untreated bacteria severed as controls. The PAE was calculated using the following equation: PAE = T − C, where T is the time (h) required for the CFU in the test culture to increase by 10-fold from the count immediately after the drug removal and C is the corresponding time (h) for the control. The experiment was performed in triplicate.

in vitro = details: mouse, 25% mouse serum
S. pullorum CVCC533 = assay: microbe, parasite or virus in culture; format: cell-based
Text: as §1

Escherichia coli CVCC195 = assay: microbe, parasite or virus in culture; format: cell-based
Text: as §1

E. coli CVCC25922 = assay: microbe, parasite or virus in culture; format: cell-based
Text: as §1

S. pullorum CVCC1789 = assay: microbe, parasite or virus in culture; format: cell-based
Text: as §1

S. enteritidis CVCC3377 = assay: microbe, parasite or virus in culture; format: cell-based
Text: as §1

[7] = test system: Candida albicans CMCC98001; assay: microbe, parasite or virus in culture; format: cell-based; details: CMCC98001
Text: as §1

E. coli CVCC1515 = assay: microbe, parasite or virus in culture; format: cell-based
Text: as §1

A. veronii X-1-06909 = assay: microbe, parasite or virus in culture; format: cell-based
Text: as §1

[8] = test system: Staphylococcus aureus ATCC43300; assay: microbe, parasite or virus in culture; format: cell-based
Text: as §1

S. pullorum CVCC1809 = assay: microbe, parasite or virus in culture; format: cell-based
Text: as §1

A. veronii ACCC61732 [9] = assay: microbe, parasite or virus in culture; format: cell-based; details: checkerboard, by FICI
Text: The checkerboard microtiter assay was used to determine the combinations of peptides with different antibiotics (including quinolone, rifamycin, peptide antibiotics, aminoglycoside, tetracycline, and chloramphenicol). […] The fractional inhibitory concentration (FIC) was used to calculate the combination effects using the following formula: FIC index (FICI) = MIC(peptide in combination)/MIC(peptide alone) + MIC(antibiotic in combination)/MIC(antibiotic alone). FICI ≤ 0.5 means synergistic, 0.5 < FICI ≤ 1 means additive action, 1 < FICI ≤ 4 means indifference, and FICI > 4 means antagonism.

[10] = A. veronii ATCC35624, broth dilution, 37 °C, 16–18 h, three experiments
[11] = S. pullorum CVCC533, broth dilution, 37 °C, 16–18 h, three experiments
[12] = Escherichia coli CVCC195, broth dilution, 37 °C, 16–18 h, three experiments
[13] = E. coli CVCC25922, broth dilution, 37 °C, 16–18 h, three experiments
[14] = S. pullorum CVCC1789, broth dilution, 37 °C, 16–18 h, three experiments
[15] = S. enteritidis CVCC3377, broth dilution, 37 °C, 16–18 h, three experiments
[16] = E. coli CVCC1515, broth dilution, 37 °C, 16–18 h, three experiments
[17] = A. veronii X-1-06909, broth dilution, 37 °C, 16–18 h, three experiments
[18] = Staphylococcus aureus ATCC43300, broth dilution, 37 °C, 16–18 h, three experiments
[19] = S. pullorum CVCC1809, broth dilution, 37 °C, 16–18 h, three experiments

Compound	Permeability (PI-positive cells) (A. veronii ACCC61732 [1]; 1× MIC, 0.5 h) [%]	Permeability (PI-positive cells) (A. veronii ACCC61732 [1]; 1× MIC, 2 h) [%]	Permeability (PI-positive cells) (A. veronii ACCC61732 [1]; 2× MIC, 0.5 h) [%]	Permeability (PI-positive cells) (A. veronii ACCC61732 [1]; 2× MIC, 2 h) [%]	increase of MIC after 30 serial passages (A. veronii ACCC61732 [2])	time to completely kill A. veronii ACCC61732 (A. veronii ACCC61732 [3]) [h]	MIC (A. veronii ATCC35624; [10]) [µg/mL]	MIC (A. veronii ATCC35624; ATCC35624) [µM]	MIC (E. coli CVCCO157) [µg/mL]	bacteria in biofilm killed [5]; 8 [%]	bacteria in biofilm killed [5]; 16 [%]	PAE (A. veronii ACCC61732 [6]; 1× MIC) [h]	PAE (A. veronii ACCC61732 [6]; 2× MIC) [h]	PAE (A. veronii ACCC61732 [6]; 4× MIC) [h]	remaining at 2 h (in vitro) [%]	remaining at 4.5 h (in vitro) [%]	MIC (S. pullorum CVCC533; [11]) [µg/mL]	MIC (Escherichia coli CVCC195; [12]) [µg/mL]	MIC (E. coli CVCC25922; [13]) [µg/mL]	MIC (S. pullorum CVCC1789; CVCC1789, read-out: MIC) [µM]	other results
CC(C)[C@H]1NC(=O)CNC(=O)[C@@H](CC(N)=O)NC(=O)[C@@H](CCCNC(=N)N)NC(=O)[C@@H](Cc2ccc(O)cc2)NC(=O)[C@@H](C(C)C)NC(=O)[C@H](NC(=O)[C@H](NC(=O)[C@@H](CC(N)=O)NC(=O)[C@@H](Cc2c[nH]c3ccccc23)NC(=O)[C@@H](C)NC(=O)[C@@H](Cc2ccccc2)NC(=O)CN)C(C)C)CSSC[C@H](C(=O)N[C@H](Cc2c[nH]cn2)C(=O)N[C@H](CCCNC(=N)N)C(=O)N[C@H](CCCNC(=N)N)C(=O)N[C@H](C)C(=O)N[C@H](CC(N)=O)C(N)=O)NC(=O)[C@@H](C(C)C)NC(=O)[C@@H](CCCNC(=N)N)NC1=O [DN6NH2]	0	3.42	9.16	9.83	seven-fold	≤ 1	64	25.86	4	64.22	66.79	0.68 ± 0.01	1.13 ± 0.11	3.36 ± 0.19	92.7	78.4	16	8	8	6.46	Permeability (PI-positive cells) (A. veronii ACCC61732 [1]; 4× MIC, 0.5 h): 41.93%; Permeability (PI-positive cells) (A. veronii ACCC61732 [1]; 4× MIC, 2 h): 33.73%; ability to penetrate the outer membrane (A. veronii ACCC61732 [4]): higher ability to penetrate the outer membrane than N6NH2; MIC (E. coli CVCCO157; read-out: MIC): 1.62 µM; MIC (S. pullorum CVCC533; CVCC533, read-out: MIC): 6.46 µM; MIC (Escherichia coli CVCC195; CVCC195, read-out: MIC): 3.23 µM; MIC (E. coli CVCC25922; CVCC25922, read-out: MIC): 3.23 µM; MIC (S. pullorum CVCC1789; [14]): 16 µg/mL; MIC (S. enteritidis CVCC3377; CVCC3377, read-out: MIC): 0.81 µM; MIC (S. enteritidis CVCC3377; [15]): 2 µg/mL; MIC [7]: 128 µg/mL; MIC (E. coli CVCC1515; [16]): 4 µg/mL; MIC (E. coli CVCC1515; E. coli CVCC1515, broth dilution, 37 °C, 16–18 h, three experiments, read-out: MIC): 1.62 µM; MIC (A. veronii X-1-06909; [17]): 32 µg/mL; MIC (A. veronii X-1-06909; read-out: MIC): 12.93 µM; MIC [8, 18]: 4 µg/mL; MIC ([8]; Staphylococcus aureus ATCC43300, broth dilution, 37 °C, 16–18 h, three experiments, read-out: MIC): 1.62 µM; MIC (S. pullorum CVCC1809; CVCC1809, read-out: MIC): 3.23 µM; MIC (S. pullorum CVCC1809; [19]): 8 µg/mL
CC(C)[C@@H]1NC(=O)CNC(=O)[C@H](CC(N)=O)NC(=O)[C@H](CCCNC(=N)N)NC(=O)[C@H](Cc2ccc(O)cc2)NC(=O)[C@H](C(C)C)NC(=O)[C@@H](NC(=O)[C@@H](NC(=O)[C@H](CC(N)=O)NC(=O)[C@H](Cc2c[nH]c3ccccc23)NC(=O)[C@H](C)NC(=O)[C@H](Cc2ccccc2)NC(=O)CN)C(C)C)CSSC[C@@H](C(=O)N[C@@H](Cc2cnc[nH]2)C(=O)N[C@@H](CCCNC(=N)N)C(=O)N[C@@H](CCCNC(=N)N)C(=O)N[C@@H](C)C(=O)N[C@@H](CC(N)=O)C(N)=O)NC(=O)[C@H](C(C)C)NC(=O)[C@H](CCCNC(=N)N)NC1=O [N6NH2]	0	1.39	0	1.49	one-fold	8	8	3.23	4	65.49	75.36	0.69 ± 0.01	0.7 ± 0.01	1.17 ± 0.22	85.9	58	4	4	4	3.23	PAEs, range over 1×–4× MIC (A. veronii ACCC61732 [6]; 1× to 4× MIC): 0.69 to 1.17 h; remaining at 6 h (in vitro): 41.9%; interaction with polymyxin B (PMB) (A. veronii ACCC61732 [9]): synergic effect; interaction with rifampicin, streptomycin sulfate, doxycycline hyclate, and kanamycin sulfate (A. veronii ACCC61732 [9]): additive effects; MIC (S. pullorum CVCC1789; [14]): 8 µg/mL; MIC (S. enteritidis CVCC3377; CVCC3377, read-out: MIC): 0.81 µM; MIC (S. enteritidis CVCC3377; [15]): 2 µg/mL; MIC ([7]; read-out: MIC): >52 µM; MIC (E. coli CVCC1515; CVCC1515, read-out: MIC): 0.81 µM; MIC (E. coli CVCC1515; [16]): 2 µg/mL; MIC (A. veronii X-1-06909; [17]): 32 µg/mL; MIC (A. veronii X-1-06909; read-out: MIC): 12.9 µM; MIC ([8]; ATCC43300, read-out: MIC): 6.46 µM; MIC [8, 18]: 16 µg/mL; MIC (S. pullorum CVCC1809; [19]): 4 µg/mL
